In publication PMC3499368, “Evolution of Minimal Specificity and Promiscuity in Steroid Hormone Receptors” (PLoS Genetics, 2012):
pEC50: −log10 of the molar value. Like-named read-outs stand apart in the source and are kept apart here.

Legend:
[1] = system: AncSR2-LBD; test: luciferase reporter gene assay, Gal4-DBD fusion of AncSR2-LBD in CHO-K1 cells, activation; type: cell-based; conditions: for Ratio H1/H2 of EC50, preference for 17-acetyl vs. 17-hydroxy group / Ratio H2/H1 of EC50, preference for 17-acetyl vs. 17-hydroxy group: AncSR2, Table S5 section d, pairs H1/H2: 13/6, 17/8, 15/9, 16/10, 19/23; for Ratio H1/H2 of EC50, preference for 3-hydroxy vs. 3-keto group / Ratio H2/H1 of EC50, preference for 3-hydroxy vs. 3-keto group: AncSR2, Table S5 section e, pairs H1/H2: 18/17, 9/6, 15/13; for pEC50: AncSR2, representative dose activation curves (Fig. S4) and Table S5 sections c-i; for Ratio H1/H2 of EC50, preference for 19-H vs. 19-methyl group / Ratio H2/H1 of EC50, preference for 19-H vs. 19-methyl group: AncSR2, Table S5 section i, pairs H1/H2: 8/6, 17/13, 18/15; for activation of AncSR2 (in words): luciferase reporter
Description: To experimentally test these hypotheses, we synthesized cDNAs for the AncSR1 and AncSR2 LBD protein sequences, expressed them as Gal4-DBD fusion constructs, and characterized their sensitivity to hormones using luciferase reporter gene assays. […] It was unresponsive to a broad array of androgens, progestagens, and corticosteroids, as well as cholesterol (Figure 2A, Figure S3).
For AncSR2, we identified all plausible alternate reconstructions (those with posterior probability >0.20 excluding biochemically similar K/R, D/E, S/T, and I/L differences) and introduced each alternate state individually into the AncSR2 background using the Quikchange Mutagenesis kit (Stratagene), verified clones by sequencing, and repeated the activation assays with each version of AncSR2 (Figure S6). The ML AncSR2 sequence reconstructed on the ML tree had high baseline activation in the absence of ligand; this phenotype is almost certainly an artifact, because constitutive baseline activity is not present in any of AncSR2's extant descendants; it is well-established that some amino acid replacements can cause nuclear receptors to become constitutive by marginally stabilizing the active conformation in the absence of hormone. […] The “constitutive” Leu79 state is weakly supported on the ML tree (PP = 0.59), and has no support (PP = 0.00) on the phylogeny that is most parsimonious in terms of gene duplications and losses; in contrast, the “non-constitutive” state Met79 has PP = 0.41 on the ML tree and PP = 1.00 on the rearranged gene duplication/loss tree (Figure S12, Table S8). The AncSR2 sequence used for all experiments reported in the text therefore contains state Met79. The other alternate reconstructions were then reintroduced into this AncSR2 sequence: none qualitatively changed the receptor's sensitivity to the various classes of steroid hormones, except for A171V, which conferred constitutive activity (Figure S6).

[2] = system: AncSR1-LBD; test: luciferase reporter gene assay, Gal4-DBD fusion of AncSR1-LBD in CHO-K1 cells, activation; type: cell-based; conditions: for pEC50: AncSR1, representative dose activation curves (Fig. S3) and Table S5 section b; for activation of AncSR1 (in words): luciferase reporter
Description: To experimentally test these hypotheses, we synthesized cDNAs for the AncSR1 and AncSR2 LBD protein sequences, expressed them as Gal4-DBD fusion constructs, and characterized their sensitivity to hormones using luciferase reporter gene assays.

[3] = listed as given under Hormone 1
[4] = AncSR1, Table S5 section b, pairs H1/H2: 18/19, 22/20, 8/23, listed as given under Hormone 1
[5] = AncSR2, Table S5 section f, pairs H1/H2: 1/6, 2/7, listed as given under Hormone 1
[6] = AncSR2, Table S5 section g, pairs H1/H2: 1/3, 2/4, listed as given under Hormone 1
[7] = AncSR2, Table S5 section h, pairs H1/H2: 3/4, 6/7, listed as given under Hormone 1

## C[C@]12CC[C@H]3[C@@H](CCC4=C[C@@H](O)CC[C@@]43C)[C@@H]1CC[C@@H]2O [4-androstenediol]
[1]; [3]
  Ratio H1/H2 of EC50, preference for 17-acetyl vs. 17-hydroxy group: 119.09
  Ratio H2/H1 of EC50, preference for 17-acetyl vs. 17-hydroxy group: 0.01
  Ratio H1/H2 of EC50, preference for 3-hydroxy vs. 3-keto group: 2.26
  Ratio H2/H1 of EC50, preference for 3-hydroxy vs. 3-keto group: 0.44
[1]
  pEC50: 6.58

## C[C@]12CCC(=O)C=C1CC[C@@H]1[C@@H]2CC[C@]2(C)C(=O)CC[C@@H]12 [4-androstenedione]
[1]
  pEC50: 6.39
[2]; [4]
  Ratio H1/H2 of EC50, preference for aromatized A-ring: 144.93
  Ratio H2/H1 of EC50, preference for aromatized A-ring: 0.01
[2]
  pEC50: < 5.00

## CC(=O)C1CCC2C3CCC4=CC(O)CCC4(C)C3CCC12C (stereo not drawn) [4-pregnenolone]
[1]; [3]
  Ratio H1/H2 of EC50, preference for 3-hydroxy vs. 3-keto group: 0.40
  Ratio H2/H1 of EC50, preference for 3-hydroxy vs. 3-keto group: 2.50
[1]
  pEC50: 8.66

## C[C@]12CC[C@H]3[C@@H](CC=C4C[C@@H](O)CC[C@@]43C)[C@@H]1CC[C@@H]2O [5-androstenediol]
[1]; [3]
  Ratio H1/H2 of EC50, preference for 17-acetyl vs. 17-hydroxy group: 21.84
  Ratio H2/H1 of EC50, preference for 17-acetyl vs. 17-hydroxy group: 0.05
[1]
  pEC50: 7.08

## CC(=O)C1CCC2C3CC=C4CC(O)CCC4(C)C3CCC12C (stereo not drawn) [5-pregnenolone]
[1]; read-out: EC50
  pEC50: 8.42

## C[C@]12CCC(=O)C=C1CC[C@@H]1[C@@H]2CC[C@@]2(C)[C@H]1CC[C@]2(O)C(=O)CO [11-deoxycortisol]
[1]; [5]
  Ratio H1/H2 of EC50, preference for 21-OH group vs. H group: 0.08
  Ratio H2/H1 of EC50, preference for 21-OH group vs. H group: 12.67
[1]; [6]
  Ratio H1/H2 of EC50, preference for 11-OH vs. H group: 0.15
  Ratio H2/H1 of EC50, preference for 11-OH vs. H group: 6.53
[1]; read-out: EC50
  pEC50: 8.82

## CC(=O)[C@@]1(O)CC[C@H]2[C@@H]3CCC4=CC(=O)CC[C@]4(C)[C@H]3CC[C@@]21C [17α-hydroxyprogesterone]
[1]; read-out: EC50
  pEC50: 7.72

## CC(=O)C1CCC2C3CCC4=CC(=O)CCC4C3CCC12C (stereo not drawn) [19-norprogesterone]
[1]; [3]
  Ratio H1/H2 of EC50, preference for 19-H vs. 19-methyl group: 0.29
  Ratio H2/H1 of EC50, preference for 19-H vs. 19-methyl group: 3.44
[1]
  pEC50: 8.80
[2]; [4]
  Ratio H2/H1 of EC50, preference for aromatized A-ring: 0.02
[2]
  pEC50: < 5.00

## CC12CCC3C4CCC(=O)C=C4CCC3C1CCC2O (stereo not drawn) [19-nortestosterone]
[1]; [3]
  Ratio H1/H2 of EC50, preference for 17-acetyl vs. 17-hydroxy group: 43.13
  Ratio H2/H1 of EC50, preference for 17-acetyl vs. 17-hydroxy group: 0.02
  Ratio H1/H2 of EC50, preference for 19-H vs. 19-methyl group: 0.59
  Ratio H2/H1 of EC50, preference for 19-H vs. 19-methyl group: 1.68
[1]
  pEC50: 7.16

## C[C@H](O)[C@H]1CC[C@H]2[C@@H]3CCC4=CC(=O)CC[C@]4(C)[C@H]3CC[C@]12C [20α hydroxyprogesterone]
[1]; read-out: EC50
  pEC50: 7.72

## C[C@@H](O)[C@H]1CC[C@H]2[C@@H]3CCC4=CC(=O)CC[C@]4(C)[C@H]3CC[C@]12C [20β hydroxyprogesterone]
[1]; read-out: EC50
  pEC50: 8.00

## CC/C(=C(/CC)c1ccc(O)cc1)c1ccc(O)cc1 [Diethylstilbestrol]
[1]
  activation of AncSR2 (in words): not activated
[2]
  activation of AncSR1 (in words): activated

## O=c1c(-c2ccc(O)cc2)coc2cc(O)cc(O)c12 [Genistein]
[1]
  activation of AncSR2 (in words): not activated
[2]
  activation of AncSR1 (in words): activated

## C[C@]12CCC(=O)C=C1CC[C@@H]1[C@@H]2[C@@H](O)C[C@]2(C=O)[C@@H](C(=O)CO)CC[C@@H]12 [aldosterone]
[1]; read-out: EC50
  pEC50: 8.72

## C[C@]12C[C@H](O)[C@H]3[C@@H](CCC4=CC(=O)CC[C@@]43C)[C@@H]1CC[C@@H]2C(=O)CO [corticosterone]
[1]; [7]
  Ratio H1/H2 of EC50, preference for 17a-H group vs. -OH group: 0.03
  Ratio H2/H1 of EC50, preference for 17a-H group vs. -OH group: 31.61
[1]; read-out: EC50
  pEC50: 9.51
